Earlier results on 3 substances are cited in patent US10285971B2, “Formulations of water-soluble derivatives of vitamin E and soft gel compositions, concentrates and powders containing same” (VIRUN, INC., priority 2014, dated 2019).

As to sucrose distearate, the HLB value is 3. As to sucrose dipalmitate, the HLB value is reported as 7.4.

As to sucrose monopalmitate, the HLB value is recorded as > 10.
